Measurements reported in paper PMC5666896, “Molecular Docking and Screening Studies of New Natural Sortase A Inhibitors” (International Journal of Molecular Sciences, 2017).
In brackets after ≈: the same amount, converted by molar mass. Entries after “also recorded” stand apart in the source; their conditions may differ. One block for each compound: values may come before it.

How the values were obtained:
SrtA [1] = target: T1, SrtA (Staphylococcus aureus, UniProt Q2FV99); experiment: Sortase A activity assay (FRET, SensoLyte 520 kit); format: biochemical, S. aureus
T1 construct: purchased Anaspec, San Jose, CA, USA
Procedure: The inhibitory activity of all of the compounds was determined by quantifying the increase in fluorescence intensity upon a cleavage 5-FAM/QXL® FRET substrate using a SensoLyte® 520 Sortase A Activity Assay Kit (Anaspec, San Jose, CA, USA). According to kit protocol, reactions were performed in a 96-well plate, with each well containing 10 μL test compound solution, 40 μL enzyme solution, and 50 μL sortase substrate solution. All compounds were dissolved in dimethyl sulfoxide (DMSO) and diluted with sterilized distilled water. The final concentration of DMSO was 1%. Each compound diluted in buffer to the tested concentration and was checked for intrinsic fluorescence. According to the kit protocol, we used the enzyme without the test compound as a control, a 1% DMSO control, and a substrate control. We used the kit inhibitor, 4-hydroxymercuribenzoic acid (HMB), as the positive control. Reactions were carried out for 1 h at room temperature and analyzed fluorometrically (SpectraMAX Gemini XS, CA, USA) at Ex/Em = 490 nm/520 nm. All reported values are the means of triplicate assays.

SrtA [2] = target: T1, SrtA; settings: cited from earlier work
[3] = Solubility in water (observation during FRET testing)
Daphnia magna = experiment: in vivo; settings: after 48 h; tested 0.5 to 100 μM
Procedure: (§1) The Daphnia magna test was performed in 4 mL 12-tissue culture wells, using 10 daphnids/well, with each sample being tested in duplicate. […] All experiments were conducted in the dark, in a plant growth chamber (Sanyo MLR-351 H, San Diego, CA, USA) at 25 ± 1 °C [32, 33].
(§2) Statistical analysis of the inhibitory effect on SrtA and the Daphnia magna bioassay was performed using GraphPad Prism version 5.01 software (GraphPad Software, Inc., La Jolla, CA, USA). A student’s t-test (p < 0.05) was applied in order to analyze the results obtained from replicates. […] The inhibition (I %) and lethality percentage (L %) values were calculated and plotted against the logarithm of concentrations and the corresponding curves were calculated using the least squares fit method. […] Whenever the obtained results permitted, the upper and lower limits of the 95% confidence interval (95% CI) and the correlation coefficient (r^2) were calculated.

tested bacteria strains = experiment: Preliminary antibacterial screening by well diffusion test; format: cell-based; settings: eight strains
Procedure: (§3) Eight food-related microorganisms were used to evaluate the antimicrobial properties, including the Gram-positive Staphylococcus aureus ATCC 6538, Staphylococcus aureus ATCC 25923, Staphylococcus epidermidis ATCC 12228, Enterococcus faecalis ATCC 29212, Bacillus cereus ATCC 11778, and the Gram-negative Escherichia coli ATCC 8739, Escherichia coli ATCC 35218, and Proteus mirabilis ATCC 29245. The antibacterial assays were performed by the well diffusion and broth microdilution method (ISO 20776-1) in order to determine MIC.
(§4) Test microorganisms were stored in freezing conditions and activated by cultivation in Nutrient broth at 37 °C for 24 h. Overnight cultures were used to obtain the inoculum by transferring an amount of cells from the broth to a test tube containing 5 mL of demineralized water until a turbidity of 1–2 × 10^8 colony-forming unit (CFU)/mL was achieved, equivalent to 0.5 McFarland standard. Dilutions of the inoculum were cultured on nutrient agar supplemented with 5% sheep blood to verify the absence of contamination and the validity of the inoculum.
Compounds were investigated by the agar well diffusion method. The plates containing Mueller Hinton agar medium were spread with 0.1 mL of the bacterial inoculum. […] Microbial inhibition was visually appreciated as the diameter of the inhibition zones surrounding the well and recorded in mm. […]

S. aureus ATCC 25923 [4] = experiment: Broth microdilution MIC; format: cell-based; settings: Staphylococcus aureus, ATCC25923; 37 °C, 24 h
Procedure: (§5) Eight food-related microorganisms were used to evaluate the antimicrobial properties, including the Gram-positive Staphylococcus aureus ATCC 6538, Staphylococcus aureus ATCC 25923, Staphylococcus epidermidis ATCC 12228, Enterococcus faecalis ATCC 29212, Bacillus cereus ATCC 11778, and the Gram-negative Escherichia coli ATCC 8739, Escherichia coli ATCC 35218, and Proteus mirabilis ATCC 29245. The antibacterial assays were performed by the well diffusion and broth microdilution method (ISO 20776-1) in order to determine MIC. Test microorganisms were stored in freezing conditions and activated by cultivation in Nutrient broth at 37 °C for 24 h. […] Dilutions of the inoculum were cultured on nutrient agar supplemented with 5% sheep blood to verify the absence of contamination and the validity of the inoculum. Bacterial strains susceptible to compounds in the well diffusion assay were studied for their MIC values using 96-well microtiter plates. The experiments were conducted using the reference method for testing the in vitro activity of the antimicrobial agents where MIC is the lowest concentration of an antimicrobial agent that, under defined in vitro conditions, prevents the appearance of visible growth of the microorganism after its incubation overnight. A total of 250 μL of the bacterial suspension in sterile demineralized water was added to 11 mL Mueller-Hinton broth (MBH) to a concentration of 5 × 10^7 cells/mL. Compounds to be investigated were dissolved in MBH containing bacterial inoculum (5 × 10^4 CFU/well) to achieve the two-fold serial concentrations ranging between […] [30]. The microplates were covered with an adhesive seal and incubated at 37 °C for 24 h. DMSO combined with MHB was used as the negative control for each bacterial strain. The plates were visually read under normal laboratory lighting using a manual mirror viewer. Two replicates were conducted for each compound and each bacterial strain.

[5] = tested on: S. epidermidis ATCC 12228; experiment: Broth microdilution MIC; format: cell-based; settings: Staphylococcus epidermidis, ATCC12228; 37 °C, 24 h
Procedure: as §5

B. cereus ATCC 11778 [6] = experiment: Broth microdilution MIC; format: cell-based; settings: Bacillus cereus, ATCC11778; 37 °C, 24 h
Procedure: as §5

P. mirabilis ATCC 29245 = experiment: Well diffusion test; format: cell-based; settings: Proteus mirabilis, ATCC29245; well 6 mm; gentamicin 10 μg, emodin 13.5 μg, rhein 14.2 μg; 37 °C, 24 h; read-out: Diameters of inhibition zone (mm), including diameter of well
Procedure: as §3, §4
(§6) Compounds were investigated by the agar well diffusion method. The plates containing Mueller Hinton agar medium were spread with 0.1 mL of the bacterial inoculum. The wells (6 mm diameter) were filled with 50 μL of the sample. The plates were incubated at 37 °C for 24 h. DMSO was used as a negative control and one standard antibiotic (gentamicin, 10 μg) as a positive control. Microbial inhibition was visually appreciated as the diameter of the inhibition zones surrounding the well and recorded in mm. All tests were run in triplicate for each combination of extract and microbial strain [26].

S. aureus ATCC 6538 = experiment: Well diffusion test; format: cell-based; settings: Staphylococcus aureus, ATCC6538; well 6 mm; gentamicin 10 μg, emodin 13.5 μg, rhein 14.2 μg; 37 °C, 24 h; read-out: Diameters of inhibition zone (mm), including diameter of well
Procedure: as §3, §4, §6

E. faecalis ATCC 29212 = experiment: Well diffusion test; format: cell-based; settings: Enterococcus faecalis, ATCC29212; well 6 mm; gentamicin 10 μg, emodin 13.5 μg, rhein 14.2 μg; 37 °C, 24 h; read-out: Diameters of inhibition zone (mm), including diameter of well
Procedure: as §3, §4, §6

S. aureus ATCC 25923 [7] = experiment: Well diffusion test; format: cell-based; settings: Staphylococcus aureus, ATCC25923; well 6 mm; gentamicin 10 μg, emodin 13.5 μg, rhein 14.2 μg; 37 °C, 24 h; read-out: Diameters of inhibition zone (mm), including diameter of well
Procedure: as §3, §4, §6

[8] = tested on: S. epidermidis ATCC 12228; experiment: Well diffusion test; format: cell-based; settings: Staphylococcus epidermidis, ATCC12228; well 6 mm; gentamicin 10 μg, emodin 13.5 μg, rhein 14.2 μg; 37 °C, 24 h; read-out: Diameters of inhibition zone (mm), including diameter of well
Procedure: as §3, §4, §6

E. coli ATCC 35218 = experiment: Well diffusion test; format: cell-based; settings: Escherichia coli, ATCC35218; well 6 mm; gentamicin 10 μg, emodin 13.5 μg, rhein 14.2 μg; 37 °C, 24 h; read-out: Diameters of inhibition zone (mm), including diameter of well
Procedure: as §3, §4, §6

E. coli ATCC 8739 = experiment: Well diffusion test; format: cell-based; settings: Escherichia coli, ATCC8739; well 6 mm; gentamicin 10 μg, emodin 13.5 μg, rhein 14.2 μg; 37 °C, 24 h; read-out: Diameters of inhibition zone (mm), including diameter of well
Procedure: as §3, §4, §6

B. cereus ATCC 11778 [9] = experiment: Well diffusion test; format: cell-based; settings: Bacillus cereus, ATCC11778; well 6 mm; gentamicin 10 μg, emodin 13.5 μg, rhein 14.2 μg; 37 °C, 24 h; read-out: Diameters of inhibition zone (mm), including diameter of well
Procedure: as §3, §4, §6

in vivo = settings: in vivo
Procedure: as §1, §2

Compound: O=c1c(O)c(-c2ccc(O)c(O)c2)oc2cc(O)cc(O)c12 [Quercetin]
- SrtA inhibition (result in words) (SrtA [1]): statistically significant SrtA inhibition
- inhibition at 10 µM (SrtA [1]): 8.55%
- Inhibition of SrtA enzymatic activity (result in words) (SrtA [2]): proven to inhibit SrtA enzymatic activity
- Solubility in water (result in words) [3]: low solubility in water; also recorded: very low solubility in water
- Maximum lethality (Daphnia magna): ≤ 30%

Compound: O=C(O)c1cc(O)c2c(c1)C(=O)c1cccc(O)c1C2=O [Rhein]
- SrtA inhibition (result in words) (SrtA [1]): statistically significant SrtA inhibition
- inhibition at 10 µM (SrtA [1]): 7.01%
- Antimicrobial effect (result in words) (tested bacteria strains): observable antimicrobial effect
- MIC (S. aureus ATCC 25923 [4]): 64 µg/mL (≈ 225 µM)
- MIC [5]: 16 µg/mL (≈ 56.3 µM)
- MIC (B. cereus ATCC 11778 [6]): 32 µg/mL (≈ 113 µM)
- Solubility in water (result in words) [3]: low solubility in water
- zone of inhibition at 14.2 µg/disc (P. mirabilis ATCC 29245): 6 mm
- zone of inhibition at 14.2 µg/disc (S. aureus ATCC 6538): 6 mm
- zone of inhibition at 14.2 µg/disc (E. faecalis ATCC 29212): 6 mm
- zone of inhibition at 14.2 µg/disc (S. aureus ATCC 25923 [7]): 12 mm
- zone of inhibition at 14.2 µg/disc [8]: 30 mm
- zone of inhibition at 14.2 µg/disc (E. coli ATCC 35218): 6 mm
- zone of inhibition at 14.2 µg/disc (E. coli ATCC 8739): 6 mm
- zone of inhibition at 14.2 µg/disc (B. cereus ATCC 11778 [9]): 15 mm

- MIC (S. aureus ATCC 25923 [4]): 2 µg/mL (≈ 4.19 µM)
- MIC [5]: 2 µg/mL (≈ 4.19 µM)
- MIC (B. cereus ATCC 11778 [6]): 4 µg/mL (≈ 8.38 µM)
Compound: CNC(C)C1CCC(N)C(OC2C(N)CC(N)C(OC3OCC(C)(O)C(NC)C3O)C2O)O1 (centres unmarked) [Gentamicin, reference compound]
- zone of inhibition at 10 µg/disc (P. mirabilis ATCC 29245): 20 mm
- zone of inhibition at 10 µg/disc (S. aureus ATCC 6538): 17 mm
- zone of inhibition at 10 µg/disc (E. faecalis ATCC 29212): 12 mm
- zone of inhibition at 10 µg/disc (S. aureus ATCC 25923 [7]): 21 mm
- zone of inhibition at 10 µg/disc [8]: 29 mm
- zone of inhibition at 10 µg/disc (E. coli ATCC 35218): 20 mm
- zone of inhibition at 10 µg/disc (E. coli ATCC 8739): 21 mm
- zone of inhibition at 10 µg/disc (B. cereus ATCC 11778 [9]): 24 mm

Compound: Cc1cc(O)c2c(c1)C(=O)c1cc(O)cc(O)c1C2=O [Emodin]
- SrtA inhibition (result in words) (SrtA [1]): statistically significant SrtA inhibition
- inhibition at 100 µM (SrtA [1]): 10.1%
- Antimicrobial effect (result in words) (tested bacteria strains): observable antimicrobial effect
- MIC (S. aureus ATCC 25923 [4]): 8 µg/mL (≈ 29.6 µM)
- MIC [5]: 8 µg/mL (≈ 29.6 µM)
- MIC (B. cereus ATCC 11778 [6]): 16 µg/mL (≈ 59.2 µM)
- zone of inhibition at 13.5 µg/disc (P. mirabilis ATCC 29245): 6 mm
- zone of inhibition at 13.5 µg/disc (S. aureus ATCC 6538): 6 mm
- zone of inhibition at 13.5 µg/disc (E. faecalis ATCC 29212): 6 mm
- zone of inhibition at 13.5 µg/disc (S. aureus ATCC 25923 [7]): 20 mm
- zone of inhibition at 13.5 µg/disc [8]: 14 mm
- zone of inhibition at 13.5 µg/disc (E. coli ATCC 35218): 6 mm
- zone of inhibition at 13.5 µg/disc (E. coli ATCC 8739): 6 mm
- zone of inhibition at 13.5 µg/disc (B. cereus ATCC 11778 [9]): 12 mm
- LC50 at 24 h (in vivo): 34.7 µM
- LC50 at 48 h (in vivo): 24.2 µM
